{"source": "patent US9399637B2", "about": "“Substituted heteroaryl compounds and methods of use” (Calitor Sciences, LLC, priority 2014, dated 2016)", "key": {"[1]": {"target": "T1, TYK2 (h) (Homo sapiens, UniProt P29597)", "T1 construct": "purchased Millipore UK Ltd (assays run there as a service)", "T1 sequence (P29597 whole entry)": "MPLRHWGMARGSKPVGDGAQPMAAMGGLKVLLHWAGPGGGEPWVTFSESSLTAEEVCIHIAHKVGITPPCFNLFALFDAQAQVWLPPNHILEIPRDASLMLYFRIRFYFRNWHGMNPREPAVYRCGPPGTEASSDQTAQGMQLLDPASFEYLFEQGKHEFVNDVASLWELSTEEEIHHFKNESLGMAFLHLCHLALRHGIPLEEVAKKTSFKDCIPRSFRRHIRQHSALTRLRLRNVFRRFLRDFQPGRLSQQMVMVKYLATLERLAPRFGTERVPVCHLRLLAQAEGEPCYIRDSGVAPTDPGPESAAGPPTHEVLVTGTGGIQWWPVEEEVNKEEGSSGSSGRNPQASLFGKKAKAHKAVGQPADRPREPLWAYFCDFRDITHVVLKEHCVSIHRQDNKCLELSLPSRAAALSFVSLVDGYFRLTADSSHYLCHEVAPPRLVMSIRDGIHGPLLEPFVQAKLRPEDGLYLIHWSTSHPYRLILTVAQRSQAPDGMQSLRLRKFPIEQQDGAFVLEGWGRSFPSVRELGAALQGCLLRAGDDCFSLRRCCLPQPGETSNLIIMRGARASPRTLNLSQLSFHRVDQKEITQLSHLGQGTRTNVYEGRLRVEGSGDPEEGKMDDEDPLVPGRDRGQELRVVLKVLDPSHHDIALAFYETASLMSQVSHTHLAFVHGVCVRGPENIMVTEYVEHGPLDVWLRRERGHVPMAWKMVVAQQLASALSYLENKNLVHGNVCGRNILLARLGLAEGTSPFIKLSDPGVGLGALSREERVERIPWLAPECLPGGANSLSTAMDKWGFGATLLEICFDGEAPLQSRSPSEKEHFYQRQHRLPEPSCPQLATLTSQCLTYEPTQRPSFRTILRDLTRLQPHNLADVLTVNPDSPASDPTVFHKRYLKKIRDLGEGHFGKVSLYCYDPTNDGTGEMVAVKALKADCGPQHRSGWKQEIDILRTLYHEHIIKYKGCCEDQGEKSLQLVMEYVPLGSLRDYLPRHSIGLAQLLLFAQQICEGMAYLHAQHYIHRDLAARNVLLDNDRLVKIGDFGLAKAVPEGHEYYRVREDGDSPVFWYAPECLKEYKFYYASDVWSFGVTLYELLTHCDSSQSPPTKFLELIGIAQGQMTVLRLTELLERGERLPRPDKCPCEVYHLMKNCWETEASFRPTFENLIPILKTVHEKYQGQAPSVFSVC", "test": "TYK2 kinase assay", "type": "biochemical", "procedure": "(§1) Kinase assays can be performed by measurement of incorporation of γ-^33P ATP into immobilized myelin basic protein (MBP). High binding white 384 well plates (Greiner) are coated with MBP (Sigma #M-1891) by incubation of 60 μL/well of 20 μg/mL MBP in Tris-buffered saline (TBS; 50 mM Tris pH 8.0, 138 mM NaCl, 2.7 mM KCl) for 24 h at 4° C. Plates are washed 3× with 100 μL TBS. Kinase reactions are carried out in a total volume of 34 μL in kinase buffer (5 mM Hepes pH 7.6, 15 mM NaCl, 0.01% bovine gamma globulin (Sigma #I-5506), 10 mM MgCl2, 1 mM DTT, 0.02% TritonX-100). Compound dilutions are performed in DMSO and added to assay wells to a final DMSO concentration of 1%. Each data point is measured in duplicate, and at least two duplicate assays are performed for each individual compound determination. Enzyme is added to final concentrations of 10 nM or 20 nM, for example. A mixture of unlabeled ATP and γ-^33P ATP is added to start the reaction (2×10^6 cpm of γ-^33P ATP per well (3000 Ci/mmole) and 10 μM unlabeled ATP, typically. The reactions are carried out for 1 h at room temperature with shaking Plates are washed 7× with TBS, followed by the addition of 50 μL/well scintillation fluid (Wallac). Plates are read using a Wallac Trilux counter. This is only one format of such assays; various other formats are possible, as known to one skilled in the art. […]"}, "[2]": {"target": "T2, Aurora-A (h) (Homo sapiens, UniProt O14965)", "T2 construct": "purchased Millipore UK Ltd (assays run there as a service)", "T2 sequence (O14965 1-403)": "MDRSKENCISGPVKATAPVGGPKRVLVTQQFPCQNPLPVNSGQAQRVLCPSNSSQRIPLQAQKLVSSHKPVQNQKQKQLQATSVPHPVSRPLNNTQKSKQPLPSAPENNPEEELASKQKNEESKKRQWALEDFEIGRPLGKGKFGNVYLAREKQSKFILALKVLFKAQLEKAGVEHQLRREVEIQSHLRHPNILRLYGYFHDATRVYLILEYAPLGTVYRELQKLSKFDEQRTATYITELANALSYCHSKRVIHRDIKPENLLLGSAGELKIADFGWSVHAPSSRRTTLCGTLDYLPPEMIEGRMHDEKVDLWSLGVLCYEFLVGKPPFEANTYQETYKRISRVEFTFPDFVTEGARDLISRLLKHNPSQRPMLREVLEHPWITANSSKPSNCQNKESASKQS", "test": "Aurora-A kinase assay", "type": "biochemical", "procedure": "as §1"}}}
{"molecule": "Cc1c2ccc(Nc3ncc(Cl)c(NC4CC5CN(C(=O)CC#N)CC5C4)n3)cc2nn1C", "note": "(centres unmarked) [Ex. 4, 3-(5-((5-chloro-2-((2,3-dimethyl-2H-indazol-6-yl)amino)pyrimidin-4-yl)amino)hexahydrocyclopenta[c]pyrrol-2(1H)-yl)-3-oxopropanenitrile]", "values": [{"measurement": "IC50", "setting": "[1]", "value": 20, "unit": "nM"}, {"measurement": "IC50", "setting": "[2]", "value": 104, "unit": "nM"}]}
